This note sets out measurements from US5270339A, “Phenoxybenzene derivative” (Kanagafuchi Kagaku Kogyo Kabushiki Kaisha, priority 1991, dated 1993).

In one data set the target is T1, M1 receptor (Rattus norvegicus, UniProt P08482).
T1 construct: rat's brain except for cerebellum was homogenized; from tissue; host or cells: rat brain except cerebellum, homogenate
T1 sequence (P08482 1-460): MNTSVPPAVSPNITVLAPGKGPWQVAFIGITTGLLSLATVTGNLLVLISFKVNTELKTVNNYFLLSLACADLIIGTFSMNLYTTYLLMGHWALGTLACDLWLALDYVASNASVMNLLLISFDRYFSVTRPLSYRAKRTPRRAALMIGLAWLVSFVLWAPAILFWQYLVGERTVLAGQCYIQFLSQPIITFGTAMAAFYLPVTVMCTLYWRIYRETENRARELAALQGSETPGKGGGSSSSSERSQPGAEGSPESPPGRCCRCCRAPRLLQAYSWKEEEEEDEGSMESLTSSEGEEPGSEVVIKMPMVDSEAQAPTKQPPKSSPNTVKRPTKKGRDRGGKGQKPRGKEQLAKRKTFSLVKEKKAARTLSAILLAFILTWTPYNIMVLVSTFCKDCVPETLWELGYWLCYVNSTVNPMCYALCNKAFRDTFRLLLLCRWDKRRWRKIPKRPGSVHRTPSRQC
Nature of the data set: Receptor binding activity, inhibition of [3H]pyrenzepine binding to M1. The conditions noted are these: 1 nM [3H]pyrenzepine, rat's brain except cerebellum; for inhibition at 10 µM: 10 μM test compound. The method, then: The binding ability of the test compounds to M1 was determined according to a modification of the method of Watson et al. (Life Sci., 32, 3001 (1983)). […] The mixture was incubated for 1 hour. The inhibition rate (%) of the binding with [3H]pyrenzepine was evaluated. The higher inhibition means the higher affinity of the test compound for M1 receptor.

Data set [1] can be described thus: Acute toxicity test, oral. It is filed as in vivo, ddY male mice. The conditions noted are these: mouse, in vivo, ddY mice, 2 weeks observation. The method, then: (§1) With respect to the compounds 1 to 86 shown in Table 1 as test compounds, the acute toxicity was examined using ddY mice according to the following method.
(§2) In each group, six male ddY mice weighing 27 to 30 g were employed. The compounds 1 to 86 suspended in an aqueous solution of 0.5% sodium carboxymethylcellulose were administered orally in a volume of 0.1 ml/10 g body weight. […] The LD50 (mg/kg) values were estimated from the ratio of the number of dead mice to the number of mice used.

For data set [2], the system named is experimental amnesia in mice induced by cycloheximide. Briefly: Anti-amnesic effect: passive avoidance task (step-through), cycloheximide-induced amnesia. It is filed as in vivo, ddY male mice. The settings on record: for Step-through latency: mean of group. The method, then: (§3) As experimental animals, Wistar male rats and ddY male mice were used for the tests after they were housed for a week under every 12 hours' dark-light cycle at room temperature of 24° to 26° C.
The effect on experimental amnesia in mice induced by cycloheximide was evaluated.
The experiment was carried out using an experimental apparatus of passive avoidance task for mice (made by Ohara-ika-sangyo K. K.) comprising a box divided into the two compartments of dark and light. That is, the dark compartment [a box having a reverse trapezoid cross section (height: 8 cm, base line: 5 cm, oblique line: 9.5 cm) and having the length of 14 cm] was shield from a light with a black plastic case and was floored with stainless grids for giving an electrical shock so that an electricity might be turned on a determined time after interception of a photobeam placed in the dark compartment. The light compartment made of transparent plastic (a box of the same shape as that of the dark compartment having the length of 16 cm, lightened from a location spaced 25 cm above by a 60 W electric lamp) was provided adjacent to the dark compartment. Between the two compartments, there was provided a circular entrance having the diameter of 3 cm with a guillotine door which could be opened and closed. By using the above-mentioned dark-light box, the experiment was carried out according to the following procedure.
A mouse (5 week-old) previously conditioned in the dark-light box was put in the light compartment and the guillotine door was opened. Three seconds after the mouse moved into the dark compartment and interrupted the photobeam, 0.3 mA electrical shock was given to limbs for 3 seconds from the floor grid (aquisition trial). Just after the mouse rushed into the light compartment, the door was shut and the […] in the light compartment was picked out to return to his home cage. After 24 hours, the mouse was placed again in the light compartment and the period from the opening of the guillotine door to the time the mouse completely entered the dark compartment was recorded maximally 300 seconds as a step-through latency (retention trial).
The amnesia was induced by subcutaneous injection of cycloheximide (120 mg/kg) dissolved in saline 10 minutes before the aquisition trial. As a control, the same amount of saline alone was administered. […]
A ratio of number of mice showing the step-through latency of more than 100 seconds in the group was defined as a ratio of memory for convenience's sake.
The step-through latency in Table 2 was the mean value for each treated group.

For data set [3], the system named is forced swimming test with rats (duration of immobility). Briefly: Antidepressant activity: forced swimming test using rats. The class given is in vivo, Wistar male rats. The settings on record: p.o., 30 mg/kg. The method, then:
as §3
That is, a rat (5 week-old) was placed into a glass cylinder having the inside diameter of 18 cm and the height of 40 cm which contained water (water temperature: 25° C.) up to its height of 15 cm. After 15 minutes, the rat was picked up followed by drying and then returned to his home cage. After 24 hours, the rat was again placed into the water in the same cylinder. The duration of immobility (the time rat kept motionless) was accumulatively measured with a stopwatch for five minutes (a five minutes' test). Each test compound was suspended in saline. The administration was carried out three times, at 24, 5 and 1 hour before the five minutes' test in case of an intraperitoneal administration or with only a single administration at 1 hour before the five minutes' test in case of an oral administration to examine the antidepressant effect.
The duration of immobility in Table 4 is the mean value for […] in each group. Suppression is expressed as a ratio in percentage of a reduction of the duration of immobility in the group administered with the test compound to that in the control group administered with saline alone.

In the next data set the test system is ddY mice. Briefly: Acute toxicity test, oral. The class given is in vivo, ddY male mice. The settings on record: dose of 200 mg/kg, 2 weeks. The method, then: as §1, §2
Where [4] appears, read: Mus musculus, 1 mg/kg oral, mice with latency > 100 seconds, read-out: Ratio of memory.
Where [5] appears, read: Mus musculus, 3 mg/kg oral, mice with latency > 100 seconds, read-out: Ratio of memory.

The molecule `C=CCN1CCC(=Cc2cccc(Oc3ccccc3)c2)C1=O` [Compound 20] yielded an inhibition at 10 µM at M1 receptor of 88%. Besides, the LD50 at 336 h in data set [1] was no less than 500 mg/kg.
As to `NC(=O)CN1CCC(=Cc2cccc(Oc3ccccc3)c2)C1=O` [Compound 32], 10 µM produced 91% inhibition on M1 receptor. In data set [1], the LD50 at 336 h is no less than 500 mg/kg. The molecule further yielded a Step-through latency in data set [2] (1 mg/kg oral) of 94 s. The responders at 1 mg/kg in data set [2] (setting [4]) is 50%.
`O=C1NC(N2CCCC2)CC1=Cc1cccc(Oc2ccccc2)c1` (stereo not drawn) [Compound 59] gave an inhibition at 10 µM at M1 receptor of 56%. The molecule further yielded an LD50 at 336 h in data set [1] of no less than 500 mg/kg. The molecule further displayed a Step-through latency in data set [2] (3 mg/kg oral) of 157 s. The responders at 3 mg/kg in data set [2] (setting [5]) was 50%.
`CC(C)N1CCC(=Cc2cccc(Oc3ccccc3)c2)C1=O` [Compound 16] had an inhibition at 10 µM at M1 receptor of 75%. This molecule returned an LD50 at 336 h in data set [1] of no less than 500 mg/kg. This molecule also had a Step-through latency in data set [2] (3 mg/kg oral) of 176 s. Moreover, the responders at 3 mg/kg in data set [2] (setting [5]) came out at 75%.
Turning to `CCN1CC(=Cc2cccc(Oc3ccccc3)c2)CC1C` (stereo not drawn) [Compound 75], the inhibition at 1 µM at M1 receptor (1 μM test compound) stood at 65%. In data set [1], this molecule displayed an LD50 at 336 h of no less than 500 mg/kg. The Step-through latency in data set [2] (1 mg/kg oral) turned out to be 160 s. In addition, the responders at 1 mg/kg in data set [2] (setting [4]) was 50%.
Take `CON1CCC(=Cc2cccc(Oc3ccccc3)c2)C1=O` [Compound 22]: at M1 receptor, the inhibition at 10 µM worked out at 63%. In addition, the LD50 at 336 h in data set [1] was no less than 500 mg/kg. The Step-through latency in data set [2] (3 mg/kg oral) amounted to 100 s. The responders at 3 mg/kg in data set [2] (setting [5]) was 50%.
On M1 receptor, `O=C1C(=Cc2cccc(Oc3ccccc3)c2)CCN1CCF` [Compound 26] displayed an inhibition at 10 µM of 87%. The molecule also yielded a median lethal dose (LD50) at 336 h in data set [1] of no less than 500 mg/kg. Further, the Step-through latency in data set [2] (1 mg/kg oral) is 196 s. For the same molecule, the responders at 1 mg/kg in data set [2] (setting [4]) amounted to 75%.
`C(=C1CCNC1)c1cccc(Oc2ccccc2)c1` [Compound 64] yielded a Duration of immobility in data set [3] (1 hour before test) of 40 s. For the same molecule, the “Suppression of duration of immobility” value in data set [3] (vs saline) is 82%. This molecule registered an inhibition at 10 µM at M1 receptor of 90%. Also, in data set [2] (3 mg/kg oral), the Step-through latency is 150 s. Also, the responders at 3 mg/kg in data set [2] (setting [5]) was determined as 63%.
For `CC(C)N1CCC(=Cc2cccc(Oc3ccccc3)c2)C1` [Compound 84], on M1 receptor (1 μM test compound), testing at 1 µM gave an inhibition of 75%. The LD50 at 336 h in data set [1] was no less than 500 mg/kg. In data set [2] (1 mg/kg oral), the Step-through latency is 176 s. The responders at 1 mg/kg in data set [2] (setting [4]) came out at 75%.
The molecule `CCN1CCC(=Cc2cccc(Oc3ccccc3)c2)C1` [Compound 66] had an inhibition at 1 µM on M1 receptor (1 μM test compound) of 82%. In addition, the 50% lethal dose (LD50) at 336 h in data set [1] is no less than 500 mg/kg. This molecule returned a Step-through latency in data set [2] (0.3 mg/kg oral) of 221 s. Further, in data set [2] (Mus musculus, 0.3 mg/kg oral, mice with latency > 100 seconds, read-out: Ratio of memory), the responders at 0.3 mg/kg was determined as 75%.
Consider `CCN1CCC(=Cc2cccc(Oc3ccccc3)c2)C1` [Compound 67], for which, on M1 receptor (1 μM test compound), the “Inhibition of the binding with [3H]pyrenzepine (M1)” value worked out at 78%. The Step-through latency in data set [2] (1 mg/kg oral) was 100 s. For the same molecule, the responders at 1 mg/kg in data set [2] (setting [4]) came to 50%.
`C(=C1CCNC1)c1cccc(Oc2ccccc2)c1` [Compound 63]: in the data set on ddY mice, the Dead mice entry is recorded as “no dead mice”. This molecule registered an LD50 at 336 h in data set [1] of no less than 200 mg/kg.
At M1 receptor, `CN1CCC(=Cc2cccc(Oc3ccccc3)c2)C1` [Compound 65] displayed an inhibition at 10 µM of 52%. Also, the LD50 at 336 h in data set [1] is no less than 500 mg/kg. This molecule returned a Step-through latency in data set [2] (1 mg/kg oral) of 117 s. The responders at 1 mg/kg in data set [2] (setting [4]) is 50%.
As for `CCCN1CCC(=Cc2cccc(Oc3ccccc3)c2)C1=O` [Compound 11], at M1 receptor, at 10 µM the inhibition was 58%. In addition, the 50% lethal dose (LD50) at 336 h in data set [1] was no less than 500 mg/kg. In addition, the Step-through latency in data set [2] (3 mg/kg oral) was determined as 182 s. For the same molecule, in data set [2] (setting [5]), the responders at 3 mg/kg was determined as 63%.
The corresponding values for `CCN1CCC(=Cc2cccc(Oc3ccccc3)c2)C1=O` [Compound 10] are 90%, no less than 500 mg/kg, 127 s and 80%.
On M1 receptor (1 μM test compound), `CCN1CC(=Cc2cccc(Oc3ccccc3)c2)C(C)C1` (stereo not drawn) [Compound 76] had an inhibition at 1 µM of 80%. For the same molecule, the LD50 at 336 h in data set [1] is no less than 500 mg/kg. The Step-through latency in data set [2] (1 mg/kg oral) was found to be 109 s. The responders at 1 mg/kg in data set [2] (setting [4]) worked out at 50%.
